Data published in US20020161007A1, “Non-steroidal modulators of estrogen receptors” (priority 2001, published 2002).

Experiments:
estrogen receptor = molecular target: T1, estrogen receptor (Rattus norvegicus, UniProt P06211); assay: Displacement of tritium-labelled estradiol from estrogen receptor-rich uterine cytosol; type: binding; conditions: mean ± SEM
T1 construct: Estrogen receptor-rich cytosol was obtained from the uteri; from tissue; host or cells: uterus of immature Sprague-Dawley rats (cytosol, 100,000 x g supernatant, DCC-treated)
T1 sequence (P06211 1-600): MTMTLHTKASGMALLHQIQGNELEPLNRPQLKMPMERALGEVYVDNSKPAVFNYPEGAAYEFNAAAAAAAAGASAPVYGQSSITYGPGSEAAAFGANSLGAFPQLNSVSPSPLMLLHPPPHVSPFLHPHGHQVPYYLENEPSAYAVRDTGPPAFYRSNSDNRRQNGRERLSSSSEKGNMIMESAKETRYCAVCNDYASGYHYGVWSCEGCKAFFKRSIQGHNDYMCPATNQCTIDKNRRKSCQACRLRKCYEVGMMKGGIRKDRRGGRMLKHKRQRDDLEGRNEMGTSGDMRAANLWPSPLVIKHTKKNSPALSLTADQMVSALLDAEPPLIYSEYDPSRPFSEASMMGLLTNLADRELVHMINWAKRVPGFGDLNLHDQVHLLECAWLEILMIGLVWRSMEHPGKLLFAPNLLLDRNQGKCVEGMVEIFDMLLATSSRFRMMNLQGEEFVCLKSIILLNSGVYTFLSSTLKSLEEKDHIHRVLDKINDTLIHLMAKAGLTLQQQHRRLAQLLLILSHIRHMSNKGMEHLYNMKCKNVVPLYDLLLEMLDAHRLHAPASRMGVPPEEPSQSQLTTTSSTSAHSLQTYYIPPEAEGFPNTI
Description: EXAMPLE 16—Determination of the binding affinity of compounds for estrogen receptor
Binding affinity (Ki value) for the estrogen receptor is measured by the ability of the compound to displace tritium-labelled estradiol from the receptor site.
Procedure Estrogen receptor-rich cytosol was obtained from the uteri of humanely sacrificed Sprague-Dawley immature rats (100-150 g mass). Briefly, the uteri were homogenized in 0.01 M sodium phosphate buffer, pH 7.3, containing 0.15 M NaCl, 0.1% gelatin and 0.01% sodium azide. The homogenate was then centrifuged at 100,000×g, […]. The cytosol thus isolated was pretreated with dextran coated charcoal (DCC on ice) and re-isolated using centrifugation, before freezing at−20° C. for later use. The protein concentration of cytosol samples was determined using a standard Bradford protein assay and an appropriate protein concentration range (150 μg protein in a total volume of 0.14 ml) for assay prepared. The required amounts of tritium-labeled (hot) and non-labeled (cold) estradiol were calculated using standard saturation curve techniques. A fresh buffer solution was prepared (Tris[tris(hydroxymethyl)-aminomethane]buffer-10 mM, pH 7.4, containing 1.5 mM EDTA and 3 mM sodium azide). Displacement testing of the compounds was facilitated through the incubation of a buffered solution of a known concentration of the test compound with hot estradiol solution (specific activity 157 Ci/mmol-final conc. 5 nM/ tube), followed by the addition of estrogen receptor-rich cytosol (150 μg protein). Total and non-specific binding control assays were determined in the absence and presence of 14 μl of a 0.2 mM cold estradiol solution respectively, properly corrected for the presence of ethanol in the test (displacement) samples. Samples were vortexed to ensure homogeneity and refrigerated at […] for 16-20 h. After this time the samples were retreated with DCC on ice and centrifuged for ten min at 3500×g. A 170 μl sample was pipetted from each vial and diluted with 10 ml scintillation fluid (Ecoscint). […] The samples thus prepared were counted for radioactivity by liquid scintillation counting. Binding values were obtained as counts per minute (cpm) and were converted to disintegrations per minute (dpm) and computationally analysed using sigmoidal curve fitting programs EBDA and LIGAND [14] to fit the displacement curves and to calculate binding affinity values (Ki) for the test compounds.
The following table illustrates the relative binding affinity values measured for selected compounds, based on their ability to displace radiolabelled estradiol from estrogen receptor-rich cytosol. Values are expressed as the mean determined±SEM.

[1] = system: human breast tumor MCF-7 cell line; assay: MTT antiproliferative assay on human MCF-7 cell line; type: cell-based; conditions: Homo sapiens, MCF7; MTT inhibition of proliferation, mean of triplicate determinations; read-out: IC50 Range
Description: EXAMPLE 14—Determination of the antiproliferative effects on human MCF-7 cell lines.
MTT is a yellow tetrazolium salt which is taken up only by metabolically active cells and subsequently cleaved by mitochondrial dehydrogenases to yield a purple crystalline formazan dye. On solubilisation this purple color may be read spectrophotometrically at 570 nm. The absorbance measured at this wavelength is directly proportional to the amount of viable cells present.
Procedure : The human breast tumor MCF-7 cell line was cultured in Eagles minimum essential medium in a 5% CO2 atmosphere with 10% fetal calf serum. The medium was supplemented with 1% non-essential amino acids. The cells were trypsinized and seeded at a density of 1.5×10^4 into a 96-well plate and incubated at 37° C., 5% CO2 atmosphere for 24 h. […] Control wells contained the equivalent volume of the vehicle ethanol (1% v/v). The culture medium was then removed and the cells washed with 100 μl PBS and 50 μl MTT added, to reach a final concentration of 1 mg/ml MTT added. The cells were incubated for 2 h in darkness at […]. At this point solubilisation was begun through the addition of 200 μl DMSO and the cells maintained at room temperature in darkness for 20 min to ensure thorough color diffusion before reading the absorbance. The absorbance value of control cells (no added compound) was set to 100% cell viability. Graphs of absorbance versus cell density per well were prepared to assess cell viability.

MCF-7 cells = assay: FACS (propidium iodide) assay for apoptotic induction in MCF-7 cells; type: cell-based, human; conditions: 50 μM, 16 hours
Description: EXAMPLE 17—Assay for determining apoptotic induction by compounds
Fluorescence Activated Cell Sorting
Procedure Following treatment of MCF-7 cells with apoptotic compounds, the cells were washed three times with PBS before being trypsinised and centrifuged at 300 g for 5 min. They were then resuspended in 200 μl PBS, made up to 2 ml with ice-cold ethanol (70% v/v) and left to sit on ice for at least 1 h to fix them. Approximately 1 h prior to use they were centrifuged at 300 g for 3 min and the supernatant carefully pipeted off. The pellet was resuspended in 800 μl PBS. RNAase (100 μL; 1mg/mL) and 100 μL of the fluorescent dye propidium iodide (PI; 400 μg/mL) which binds DNA were added. The tubes were vortexed and incubated at 37° C. for 30 min. Flow cytometry was performed with a FACS calibur flow cytometer from Becton Dickinson. FACS data was analysed using the programme Cell Quest.

SMILES | Ki (estrogen receptor) | IC50 [1] | % Cell cycle phases G1 (MCF-7 cells) | % Cell cycle phases G2/M (MCF-7 cells) | % Cell cycle phases S (MCF-7 cells) | % Cell cycle phases sub-G1 (MCF-7 cells; sub-G1 apoptotic peak)
CCC(Cc1ccccc1)=C(c1ccccc1)c1ccc(OCCN(C)C)cc1 (racemic) [Compound 1, 2-Benzyl-1-phenyl-1-[4-(dimethylaminoethoxy)phenyl]but-1-ene] | 459 ± 230 nM | 10000 to 15000 nM |  |  |  | 
CC/C(=C(\Cc1ccccc1)c1ccc(OCCN(C)C)cc1)c1ccccc1 [Compound 6, 1-Benzyl-2-phenyl-[(4-dimethyleaminoethoxy)phenyl]but-1-ene] | 503 ± 98 nM | 20000 to 25000 nM |  |  |  | 
CCC(=C(Cc1ccccc1)c1ccccc1)c1ccc(OCCN2CCCCC2)cc1 [Compound 14, 1-Benzyl-1-phenyl-2-[(4-pipyridinylethoxy)phenyl]but-1-ene] | 2390 ± 350 nM | 15000 to 20000 nM |  |  |  | 
CCC(=C(Cc1ccc(OCCN2CCOCC2)cc1)c1ccccc1)c1ccccc1 [Compound 20] | 2480 ± 450 nM | 15000 to 20000 nM |  |  |  | 
CCC(Cc1ccccc1)=C(c1ccc(O)cc1)c1ccc(OCCN2CCCC2)cc1 [Compound 25, 4-{2-Benzyl-1-[4-(2-pyrrolidin-1-yl-ethoxy)-phenyl]-but-1-enyl}-phenol] |  | 10 to 100 nM | 51.3% | 21.0% | 7.6% | 20.1%
